Test results published in patent US5089498A, “Substituted 4-aminoquinoline derivatives as gastric acid secretion inhibitors” (SmithKline Beckman Intercredit B.V., priority 1988, dated 1992).

System: pentagastrin stimulated gastric acid secretion
Test: Rat Lumen Perfused Stomach (pentagastrin stimulated gastric acid secretion)
Type: in vivo
Conditions: i.v., 10 μmole/kg
Text: B. Rat Lumen Perfused Stomach (pentagastrin stimulated gastric acid secretion).
Using a modification of the procedure described by Ghosh & Schild (Br. J. Pharmacology, 13, 54, 1958), the compounds of the following examples were found on i.v. administration at a concentration of 10 μmole/kg to cause an inhibition of pentagastrin stimulated gastric acid secretion a follows: […]

## CCCC(=O)c1cnc2c(C(=O)OC)cccc2c1Nc1ccccc1C [Example 1, methyl 3-butyryl-4-(2-methylphenylamino)quinoline-8-carboxylate]
  % inhibition of pentagastrin stimulated gastric acid secretion: 42%

## CCCC(=O)c1cnc2c(C(N)=O)cccc2c1Nc1ccccc1C [Example 2, 3-butyryl-4-(2-methylphenylamino)quinoline-8-carboxamide]
  % inhibition of pentagastrin stimulated gastric acid secretion: 39%
